The subject of data set [1] is IL-6 production in TNF-α + IFN-γ-treated HaCaT cells. Kind of data set: IL-6 production in TNF-α + IFN-γ-treated HaCaT cells (ELISA). It counts as cell-based, human. Conditions: for IL-6 production: HaCaT cells pre-treated 3 h, then TNF-α + IFN-γ 24 h, result in words; for IC50: HaCaT cells pre-incubated with compound 3 h, then TNF-α + IFN-γ (20 ng/mL) 24 h, ELISA. The source says: The skin consists of two basic layers: the epidermis and dermis. The epidermis is mainly composed of keratinocytes. Pro-inflammatory cytokines are known to play an important role in the immune response in keratinocytes. Previous studies have reported the roles of TNF-α and IFN-γ in inducing NF-κB activation, which upregulates the production of IL-6 and IL-8 [25]. […] Accordingly, the effect of the 16 compounds from C. tricuspidata on IL-6 production in TNF-α + IFN-γ-treated HaCaT cells were determined. Briefly, HaCaT cells were pre-incubated with different concentrations of the 16 compounds for 3 h, and then stimulated with TNF-α + IFN-γ for 24 h.
(§1) The cytokines and chemokines in IL-6, IL-8, CCL17 (TARC), and CCL5 (RANTES) HaCaT cells were detected using an enzyme-linked immunosorbent assay. The levels of these cytokines and chemokines were measured using commercial ELISA kits (BioLegend, San Diego, CA, USA), according to the manufacturer’s instructions.
Figure S2. Effects of the 16 compounds from C. tricuspidata on IL-6 production in TNF-α+IFN-γ-treated HaCaT cells (A, B, and C). Cells were pre-treated with the indicated concentrations of the 16 compounds from C. tricuspidata for 3 h and then stimulated with TNF-α+IFN-γ (20 ng/mL) for 24 h. IL-6 levels were determined as described in the Materials and Methods section. The results are presented as the mean ± standard deviation of three experiments. *p < 0.05, **p < 0.01, and ***p < 0.001 compared with TNF-
On the technique in general: ELISA stands for enzyme-linked immunosorbent assay.

The subject of data set [2] is IL-8 production in TNF-α + IFN-γ-treated HaCaT cells. Kind of data set: IL-8 production in TNF-α + IFN-γ-treated HaCaT cells (ELISA). The following applies: for IL-8 production: HaCaT cells pre-treated 3 h, then TNF-α + IFN-γ 24 h, result in words; for IC50: HaCaT cells pre-incubated with compound 3 h, then TNF-α + IFN-γ (20 ng/mL) 24 h, ELISA. It counts as cell-based, human. Here is the method:
Next, the effect of the 16 compounds from C. tricuspidata on IL-8 production in HaCaT cells were determined. Briefly, HaCaT cells were pre-incubated with different concentrations of the 16 compounds for 3 h. Thereafter, the cells were subjected to TNF-α + IFN-γ stimulation for 24 h. […] Compound 2, with its flavanone skeletons, has been studied for its cyclooxygenase and tyrosinase inhibitory effects. In a previous study, compound 2 altered the anti-neuroinflammatory response in microglia. Compound 6, a prenylated flavanone, has been reported to have apoptotic effects on A375.S2 melanoma cells and to lead to the induction of apoptotic cell death in KM12, Caco-2, HT29, HCC2998, HCT116, and SW48 cell lines. […] This is the first report on the biological action of compounds 2, 6, 12, 13, 4, and 14 on the inhibitory effects of skin inflammatory factors in skin HaCaT cells. Therefore, further mechanism studies of these six compounds in HaCaT cells were conducted.
as §1
Figure S3. Effects of the 16 compounds from C. tricuspidata on IL-8 (A, B, and C) production in TNF-α+IFN-γ-treated HaCaT cells. The cells were pre-treated with the indicated concentrations of the C. tricuspidata compounds for 3 h, and then stimulated with TNF-α+IFN-γ (20 ng/mL) for 24 h. […] levels were determined as described in the Materials and Methods section. Data are expressed as the mean ± standard deviation of three experiments. *p < 0.05, **p < 0.01, and ***p < 0.001 compared with TNF- […]
(1 picture or pasted object on this page, not shown here)

For data set [3], the system named is HaCaT cells. Kind of data set: Cell Counting Kit (CCK)-8 cell viability / cytotoxicity assay. Conditions: CCK-8 assay, 24 h, concentration values that did not result in cytotoxicity. For orientation: Formazan colour is commonly taken as a measure of viable cells.
Description: (§6) The cytotoxicity of the 16 compounds was evaluated using a Cell Counting Kit (CCK)-8 assay on HaCaT cells.
(§7) To determine the viability of HaCaT cells, these were maintained at 2 × 10^4 cells/well, treated with the test compounds in the presence or absence of glutamate (5 mM), and cultured for 24 h. Subsequently, a CCK8 assay (Dojindo Laboratories, Kumamoto, Japan) was performed and the cells were incubated for 1 h. The absorbance was then measured at 450 nm.
In data set [4] the test system is IκBα degradation in HaCaT cells. Kind of data set: Degradation of cytoplasmic IκBα in TNF-α + IFN-γ-treated HaCaT cells (Western blotting). The format is cell-based, human. Conditions: HaCaT cells pretreated 3 h, then TNF-α + IFN-γ (20 ng/mL) 10 min; Western blot. The text has this:
(§2) The activation of NF-κB by TNF-α and/or IFN-γ results from high levels of IκB phosphorylation and the degradation of IκB in keratinocytes. NF-κB–mediated inflammation is a significant component of innate immunity and seems to be a final common pathway for the aggravation of the inflammatory response to stimuli in immune diseases of the skin [56]. To determine the potential mechanisms of the inhibition of TNF-α + IFN-γ-induced pro-inflammatory enzyme and the mediator levels by the six compounds from C. tricuspidata, their effects on the phosphorylation and degradation of cytoplasmic IκBα and on p65 translocation to the nucleus were investigated. […] In addition, compounds 13, 4, and 14 inhibited the phosphorylation of IκBα (Figure 5C,D). When HaCaT cells were exposed to TNF-α + IFN-γ, NF-κB p65 translocated from the cytoplasm to the nucleus.
(§3) Figure 5 Effects of the six compounds from C. tricuspidata on the degradation of IκB-α (A,B), the phosphorylation of IκBα (C,D), and the translocation of NF-κB p65 to the nucleus (E,F) in HaCaT cells. Cells were pretreated with the six compounds from C. tricuspidata at the indicated concentrations for 3 h and stimulated with TNF-α + IFN-γ (20 ng/mL) for 10 min. IκBα, p-IκBα, and NF-κB p65 were analyzed using Western blotting, as described in the Materials and Methods section. Representative blots from four independent experiments are presented. The immunoblots were quantified using ImageJ software. The band intensity was normalized to that of actin or anti-proliferating cell nuclear antigen (PCNA). * p < 0.05, ** p < 0.01, *** p < 0.001 compared with TNF-α + IFN-γ only.
(§4) Cells were harvested and pelleted via centrifugation at 200× g for 3 min, washed with PBS, and lysed in 20 mM Tris-HCl buffer (pH 7.4) containing a protease inhibitor mixture (0.1 mM phenylmethanesulfonyl fluoride, 5 mg/mL aprotinin, 5 mg/mL pepstatin A, and 1 mg/mL chymostatin). The protein concentration was determined using a protein assay dye reagent concentrate (#5000006; Bio-Rad Laboratories, Hercules, CA, USA). A total of 30 micrograms of protein from each sample was resolved using 7.5% and 12% sodium dodecyl sulfate-polyacrylamide gel electrophoresis. Thereafter, the proteins were electrophoretically transferred onto Hybond enhanced chemiluminescence (ECL) nitrocellulose membranes (Bio-Rad Laboratories). The membranes were blocked with 5% skimmed milk, and sequentially incubated with the relevant primary antibody and horseradish peroxidase-conjugated secondary antibody, prior to ECL detection (Pierce Biotechnology, Rockford, IL, USA).
(§5) HaCaT cells were homogenized in PER-Mammalian Protein Extraction Buffer (1:20, w:v) (Pierce Biotechnology, Rockford, IL, USA) containing freshly added protease inhibitor cocktail I (EMD Biosciences, San Diego, CA, USA) and 1 mM phenylmethanesulfonyl fluoride. The cytosolic fractions were prepared using centrifugation at 16,000× g for 5 min at 4 °C, while the nuclear and cytoplasmic cell extracts were prepared using NE-PER nuclear and cytoplasmic extraction reagents, respectively (Pierce Biotechnology, Rockford, IL, USA).
(In general: Immunoblotting shows a protein as a band on a membrane.)

Data set [5] has as its system NF-κB p65 translocation to the nucleus in HaCaT cells. Briefly: NF-κB p65 translocation to the nucleus in TNF-α + IFN-γ-treated HaCaT cells (Western blotting). Conditions: HaCaT cells pretreated 3 h, then TNF-α + IFN-γ (20 ng/mL) 10 min; Western blot. It counts as cell-based, human.
From the text: as §2, §3, §4, §5

Data set [6] has as its system HaCaT cells.
Description: as §6, §7

Read-outs that look alike come from different tables or passages of the source.

By IC50 is commonly meant the concentration that gives 50% inhibition.

For `CC(C)=CCc1cc([C@H]2Oc3cc(O)c(CC=C(C)C)c(O)c3C(=O)C2O)c(O)cc1O` (stereo partly drawn) [Compound 3, cudraflavanone D], the IL-6 production entry in data set [1] is listed as “significantly decreased”. Moreover, the IC50 was above 10 µM in data set [1] (Homo sapiens) and 4.2 ± 1.03 µM in data set [2] (Homo sapiens). In addition, the IL-8 production result in data set [2] is on record as “decreased”. In data set [3], this molecule yielded a Cytotoxicity above 10 µM.
With `C=CC(C)(C)c1c2c(c3oc4cc(O)c(O)cc4c(=O)c3c1O)C=CC(C)(C)O2` [Compound 16, cudratricusxanthone N], the IC50 in data set [1] (Homo sapiens) and in data set [2] (Homo sapiens) was above 2 µM in each case. For the same molecule, the IL-8 production result in data set [2] was “decreased”. In data set [3], this molecule showed a Cytotoxicity above 2 µM.
On to `C=CC(C)(C)c1c(OC)c(CC=C(C)C)c2oc3cc(O)c(O)cc3c(=O)c2c1O` [Compound 15, cudracuspixanthone A], for which the IL-6 production result in data set [1] is reported as “significantly decreased”. Also, the IC50 in data set [1] (Homo sapiens) is above 2 µM; in data set [2] (Homo sapiens), 1.54 ± 0.53 µM. In addition, in data set [2], the IL-8 production result is given as “decreased”. Also, the Cytotoxicity in data set [3] was above 2 µM.
For `CC(C)=CCc1c(O)cc2c(c1O)C(=O)C[C@@H](c1cc3c(cc1O)OC(C)(C)C=C3)O2` [Compound 5, cudraflavanone A], the IC50 in data set [1] (Homo sapiens) and in data set [2] (Homo sapiens) was above 40 µM throughout. Further, in data set [2], the IL-8 production result is listed as “decreased”. Also, in data set [3], the Cytotoxicity was above 40 µM.
As to cudraxanthone M [Compound 8], the concentration for half-maximal inhibition (IC50) in data set [1] is above 10 µM. For the same molecule, in data set [2], the 50% inhibitory concentration (IC50) was above 10 µM and the IL-8 production result is “decreased”. For the same molecule, in data set [3], the Cytotoxicity is above 10 µM.
As for `C=CC(C)(C)c1c(O)c(CC=C(C)C)c2oc3cc(O)c(O)cc3c(=O)c2c1O` [Compound 12, macluraxanthone B], the IL-6 production result in data set [1] is “significantly decreased”. In addition, the IC50 was above 5 µM in data set [1] (Homo sapiens) and 7.88 ± 3.09 µM in data set [2] (Homo sapiens). In addition, the IL-8 production result in data set [2] was “decreased”. In addition, in data set [4], the “degradation of IκBα in the cytoplasm” value was “inhibit”. Besides, the “NF-κB p65 translocation to the nucleus” value in data set [5] is reported as “significantly inhibited”. For the same molecule, in data set [3], the Cytotoxicity is above 5 µM.
Consider `COc1cc(/C=C/C(=O)CC(=O)/C=C/c2ccc(O)c(OC)c2)ccc1O` [curcumin, reference compound], for which the values for the half-maximal inhibitory concentration (IC50) in data set [1] (Homo sapiens) and in data set [2] (Homo sapiens) were 12 ± 3.13 µM and 10.3 ± 2.2 µM, respectively.
For `O=C1c2c(O)cc(O)cc2O[C@H](c2ccc(O)cc2)[C@H]1O` [Compound 1, dihydrokaempferol], the IL-6 production entry in data set [1] is given as “significantly decreased”. Moreover, the concentration for half-maximal inhibition (IC50) in data set [1] (Homo sapiens) and in data set [2] (Homo sapiens) was above 80 µM throughout. Further, in data set [2], the IL-8 production result is on record as “decreased”. The same molecule gave a Cytotoxicity in data set [3] above 80 µM.
As to `CC(C)=CCc1c(-c2ccc(O)cc2O)oc2c(CC=C(C)C)c(O)cc(O)c2c1=O` [Compound 7, kuwanon C], the IL-6 production entry in data set [1] is “significantly decreased”. The half-inhibitory concentration (IC50) was 25.8 ± 5.16 µM in data set [1] (Homo sapiens) and above 40 µM in data set [2] (Homo sapiens). The IL-8 production result in data set [2] is given as “decreased”. The Cytotoxicity in data set [3] is above 40 µM.
As for `C=CC(C)(C)c1c(O)cc2oc3c(CC=C(C)C)c(O)c(O)cc3c(=O)c2c1O` [Compound 10, cudraxanthone L], the IL-6 production result in data set [1] was “significantly decreased”. Moreover, the IC50 in data set [1] (Homo sapiens) and in data set [2] (Homo sapiens) was above 2 µM in each case. The IL-8 production entry in data set [2] is “decreased”. This molecule also showed a Cytotoxicity in data set [3] above 2 µM.
For the molecule `C=CC(C)(C)c1c(O)cc(O)c2c(=O)c3c(CC=C(C)C)c(O)c(O)cc3oc12` [Compound 11, cudratricusxanthone A], the IC50 in data set [1] (Homo sapiens) and in data set [2] (Homo sapiens) was above 5 µM each time. The molecule further yielded a Cytotoxicity in data set [3] above 5 µM.
Regarding `O=C1CC(c2ccc(O)cc2O)Oc2cc(O)cc(O)c21` (stereo not drawn) [Compound 2, steppogenin], the IL-6 production entry in data set [1] was “significantly decreased”. The values for the IC50 in data set [1] (Homo sapiens) and in data set [2] (Homo sapiens) were above 80 µM and 62.2 ± 16.5 µM, respectively. For the same molecule, the IL-8 production entry in data set [2] is given as “decreased”. Also, the “NF-κB p65 translocation to the nucleus” value in data set [5] is given as “significantly inhibited”. This molecule gave a Cytotoxicity in data set [3] above 80 µM.
Take cudraxanthone D [Compound 9]: in data set [2], the IL-8 production result is reported as “decreased”. This molecule also registered a Cytotoxicity in data set [6] above 5 µM.
